Literature values as cited in US20090233840A1, “Modified Dynorphin Expression in Animals and Identification of Compounds for Treatment of Obesity and Diabetes” (priority 2004, published 2009).

Tests used:
[1] = not affected by naloxone or norBNI
[2] = tested on: cultured cortical cells from Sprague Dawley rats; settings: comparable to that induced by NMDA; resistant to naloxone
[3] = administered ICV
[4] = intracerebroventricularly

In the case of “Dyn A(1-13) (YGGFLRRIRPKLK; Dynorphin A(1-13); UniProt P01213 207-219, looked up, fragment)”, the “potency in writhing assay” value [1] is listed as “very potent”.

In the case of dynorphin A (2-17), the intracellular calcium concentration [2] is given as “increase in intracellular calcium concentration”.

For “dynorphin A (YGGFLRRIRPKLKWDNQ; Dynorphin A(1-17); UniProt P01213 207-223, looked up) [[Leu]-enkephalin-containing opioid peptide encoded by the preprodynorphin gene]”, the analgesic efficacy [3] is given as “ineffective” and the analgesic effect [4] is given as “moderate analgesic effect”.
